Test results taken from PubChem BioAssay (NCI).
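The compound was tested at five concentrations on cells cultured in 96-well plates, with a 48-hour exposure period. TGI: total growth inhibition.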 Where a SMILES comes first, the peptide text is derived from it. The star is where a group is joined. Boc = CC(C)(C)OC(=O)*

Experiments:
Experiment in all cases: DTP human tumour cell line panel, 48 h
NCI-H522 lung = tested on: NCI-H522 lung
HCC-2998 colon = tested on: HCC-2998 colon
MDA-N = tested on: MDA-N
OVCAR-4 ovarian = tested on: OVCAR-4 ovarian
NCI-H23 lung = tested on: NCI-H23 lung
CCRF-CEM leukemia = tested on: CCRF-CEM leukemia
ACHN renal = tested on: ACHN renal
KM12 colon = tested on: KM12 colon
K-562 leukemia = tested on: K-562 leukemia
MDA-MB-435 = tested on: MDA-MB-435
BT-549 breast = tested on: BT-549 breast
NCI-H460 lung = tested on: NCI-H460 lung
HCT-15 colon = tested on: HCT-15 colon
OVCAR-8 ovarian = tested on: OVCAR-8 ovarian
SNB-19 CNS = tested on: SNB-19 CNS
UACC-257 melanoma = tested on: UACC-257 melanoma
UO-31 renal = tested on: UO-31 renal
SNB-75 CNS = tested on: SNB-75 CNS
EKVX NSCLC = tested on: EKVX NSCLC
PC-3 prostate = tested on: PC-3 prostate

Row | Structure (SMILES) | TGI (NCI-H522 lung) [µM] | TGI (HCC-2998 colon) [µM] | TGI (MDA-N) [µM] | TGI (OVCAR-4 ovarian) [µM] | TGI (NCI-H23 lung) [µM] | TGI (CCRF-CEM leukemia) [µM] | TGI (ACHN renal) [µM] | TGI (KM12 colon) [µM] | TGI (K-562 leukemia) [µM] | TGI (MDA-MB-435) [µM] | TGI (BT-549 breast) [µM] | TGI (NCI-H460 lung) [µM] | TGI (HCT-15 colon) [µM] | TGI (OVCAR-8 ovarian) [µM] | TGI (SNB-19 CNS) [µM] | TGI (UACC-257 melanoma) [µM] | TGI (UO-31 renal) [µM] | TGI (SNB-75 CNS) [µM] | TGI (EKVX NSCLC) [µM] | TGI (PC-3 prostate) [µM]
1 | COc1cc(OC)cc(-n2c(N)c(-c3nc4ccccc4s3)c3ccc([N+](=O)[O-])cc3c2=O)c1 | > 100 | > 100 | > 100 | 78.9 | > 100 | > 100 | 41.7 | > 100 | > 100 | > 100 | > 100 | > 100 | > 100 | > 100 | > 100 | > 100 | > 100 | > 100 |  | 
2 | O=S(Nc1ccccc1)c1ccc(-c2ccccc2)cc1 (stereo not given) | > 100 | > 100 | > 100 | > 100 | > 100 | > 100 | > 100 | > 100 | > 100 | > 100 | > 100 | > 100 | > 100 | > 100 | > 100 | > 100 | > 100 |  | > 100 | 
3 | COc1cc(CNc2nc3ccccc3n2Cc2ccccc2)cc(CN2CCOCC2)c1O | 78.2 | 85.1 | 68.2 | > 100 | > 100 | > 100 | > 100 | > 100 | 53.1 | 44.7 |  | > 100 | 70.6 | > 100 | > 100 | 39.9 | 52.5 | 83.9 | > 100 | 99.5
4 | CN(C)CCn1c(=O)oc2cc(C(=O)CN3CCOCC3)ccc21 |  |  | > 100 |  | > 100 | > 100 | > 100 | > 100 | > 100 | > 100 | > 100 | > 100 | > 100 | > 100 | > 100 | > 100 | > 100 | > 100 | > 100 | > 100
5 | CCNc1nc(N)c(C(=O)c2cccs2)s1 | > 100 | > 100 | > 100 | 77.6 | 63.9 |  | > 100 | 46.7 | > 100 | 82.6 | > 100 | > 100 | > 100 | > 100 | > 100 | > 100 | > 100 | 36.6 | 62.8 | > 100
6 | CCc1cccc(CC)c1Nc1nc2c(s1)C(=O)c1ccccc1C2=O | 83.3 | 35.6 | 32.3 |  | 32.8 | > 100 | 32 | 41 | > 100 | 31.9 |  | 34.9 | 98.1 |  | 31.9 | 37.8 | 29.2 | 25.4 | 36.1 | 30.2
7 | CCCC(=O)OCC1(CO)C/C(=C/CC(C(C)C)C(C)C)C(=O)O1 (stereo not given) | > 100 | > 100 | > 100 | > 100 | > 100 | > 100 | > 100 | > 100 |  | > 100 | > 100 | > 100 | > 100 | > 100 | > 100 | > 100 | > 100 | > 100 | > 100 | > 100
8 | COc1cc(/C=C2\N=C(c3ccccc3)N(c3nc4cc(C)c(C)cc4s3)C2=O)cc(OC)c1OC |  | 45.7 | 38.9 | > 100 |  | 21.8 | 83.9 | 71.2 | > 100 | 54.9 | > 100 | > 100 | > 100 | 47.6 | > 100 | > 100 | > 100 | 60 | 70.7 | > 100
9 | COC(=O)C(Cc1c[nH]c2ccccc12)NC(=O)C(Cc1c[nH]c2ccccc12)NC(=O)C(Cc1c[nH]c2ccccc12)NC(=O)OC(C)(C)C (stereo not drawn) (Boc-Trp-Trp-Trp-OMe; configuration not given here) |  | 32.9 | 40.3 |  | 31.8 |  | 32.5 | 38.2 | > 100 |  | 33.8 | 36 | 41.4 | 38.8 | 47 | > 100 | > 100 | 42 | > 100 | 30
10 | CSC1=C(C#N)C(=O)N(c2ccc(Cl)cc2)C(=O)C1C#N (stereo not given) | > 100 | > 100 | > 100 | > 100 | > 100 | > 100 | > 100 |  | > 100 | > 100 | > 100 | > 100 | > 100 |  | > 100 | > 100 | > 100 |  | > 100 | > 100
11 | CC(C)Oc1c(C2(c3ccccc3O)SCCCS2)c(=O)c1=O | 58.9 |  | > 100 | > 100 | > 100 | 61.6 | > 100 | > 100 |  | > 100 | > 100 | > 100 | > 100 | > 100 | > 100 | > 100 | > 100 | > 100 | > 100 | > 100
12 | CC(=O)/C(N=Nc1ccc(-n2c(C)nc3ccc(Br)cc3c2=O)cc1)=C(/C)O |  |  | > 100 |  | > 100 | > 100 | > 100 | > 100 | > 100 | > 100 | > 100 | > 100 | > 100 | > 100 | > 100 | > 100 | > 100 | 77 | > 100 | > 100
13 | Cc1ccc(S(=O)(=O)NC(=O)NC(C(=O)O)C(C)O)cc1 (stereo not given) | > 100 |  | > 100 | > 100 | > 100 | > 100 | > 100 | > 100 | > 100 |  | > 100 | > 100 | > 100 | > 100 | > 100 | > 100 | > 100 | > 100 |  | > 100
